# Assay results reported in patent publication US9828374B2, “Substituted pyrazino[2,2-a]isoquinoline derivatives” (Hoffmann-La Roche Inc., priority 2014, dated 2017).
# Legend:
# [1] = molecular target: rat TAAR1 (Rattus norvegicus (Rat), UniProt Q923Y9); experiment: Radioligand binding assay on rat TAAR1; conditions: for Ki: rat TAAR1, HEK-293 membranes, second value of the mouse/rat pair
# Protocol: (§1) Construction of TAAR Expression Plasmids and Stably Transfected Cell Lines
# (§2) For the construction of expression plasmids the coding sequences of human, rat and mouse TAAR 1 were amplified from genomic DNA essentially as described by Lindemann et al..
# (§3) The Expand High Fidelity PCR System (Roche Diagnostics) was used with 1.5 mM Mg^2+ and purified PCR products were cloned into pCR2.1-TOPO cloning vector (Invitrogen) following the instructions of the manufacturer. PCR products were subcloned into the pIRESneo2 vector (BD Clontech, Palo Alto, Calif.), and expression vectors were sequence verified before introduction in cell lines.
# (§4) HEK293 cells (ATCC # CRL-1573) were cultured essentially as described by Lindemann et al. (2005). For the generation of stably transfected cell lines HEK293 cells were transfected with the pIRESneo2 expression plasmids containing the TAAR coding sequences (described above) with Lipofectamine 2000 (Invitrogen) according to the instructions of the manufacturer, and 24 hrs post transfection the culture medium was supplemented with 1 mg/ml G418 (Sigma, Buchs, Switzerland). After a culture period of about 10 d clones were isolated, expanded and tested for responsiveness to trace amines (all compounds purchased from Sigma) with the cAMP Biotrak Enzyme immunoassay (EIA) System (Amersham) following the non-acetylation EIA procedure provided by the manufacturer.
# Radioligand Binding Assay on Rat TAAR1
# (§5) Membrane Preparation and Radioligand Binding.
# (§6) HEK-293 cells stably expressing rat TAAR1 were maintained at 37° C. and 5% CO2 in DMEM high glucose medium, containing fetal calf serum (10%, heat inactivated for 30 min at 56° C.), penicillin/streptomycin (1%), and 375 μg/ml geneticin (Gibco). Cells were released from culture flasks using trypsin/EDTA, harvested, washed twice with ice-cold PBS (without Ca^2+ and Mg^2+), pelleted at 1,000 rpm for 5 min at 4° C., frozen and stored at −80° C. Frozen pellets were suspended in 20 ml HEPES-NaOH (20 mM, pH 7.4) containing 10 mM EDTA and homogenized with a Polytron (PT 6000, Kinematica) at 14,000 rpm for 20 s. The homogenate was centrifuged at 48,000×g for 30 min at 4° C. Subsequently, the supernatant was removed and discarded, and the pellet resuspended in 20 ml HEPES-NaOH (20 mM, pH 7.4) containing 0.1 mM EDTA using the Polytron (20 s at 14,000 rpm). This procedure was repeated and the final pellet resuspended in HEPES-NaOH containing 0.1 mM EDTA and homogenized using the Polytron. Typically, aliquots of 2 ml membrane portions were stored at −80° C. With each new membrane batch the dissociation constant (Kd) was determined via a saturation curve. […] Nonspecific binding was defined as the amount of [H]-(S)-4-[(ethyl-phenyl-amino)-methyl]-4,5-dihydro-oxazol-2-ylamine bound in the presence of 10 μM unlabeled ligand. All compounds were tested at a broad range of concentrations (10 μM to 10 μM) in duplicates. […] The 96 deep well plates were incubated for 1 hr at 4° C. Incubations were terminated by rapid filtration through Unifilter-96 plates (Packard Instrument Company) and glass filters GF/C (Perkin Elmer) presoaked for 1 hr in polyethylenimine (0.3%) and washed 3 times with 1 ml of cold binding buffer. After addition of 45 μl of Microscint 40 (PerkinElmer) the Unifilter-96 plate was sealed and after 1 hr the radioactivity counted using a TopCount Microplate Scintillation Counter (Packard Instrument Company).
# [2] = molecular target: mouse TAAR1 (Mus musculus (Mouse), UniProt Q923Y8); experiment: Radioligand binding assay on mouse TAAR1; conditions: for Ki: mouse TAAR1, HEK-293 membranes, first value of the mouse/rat pair
# Chain of mouse TAAR1 (Q923Y8 whole entry): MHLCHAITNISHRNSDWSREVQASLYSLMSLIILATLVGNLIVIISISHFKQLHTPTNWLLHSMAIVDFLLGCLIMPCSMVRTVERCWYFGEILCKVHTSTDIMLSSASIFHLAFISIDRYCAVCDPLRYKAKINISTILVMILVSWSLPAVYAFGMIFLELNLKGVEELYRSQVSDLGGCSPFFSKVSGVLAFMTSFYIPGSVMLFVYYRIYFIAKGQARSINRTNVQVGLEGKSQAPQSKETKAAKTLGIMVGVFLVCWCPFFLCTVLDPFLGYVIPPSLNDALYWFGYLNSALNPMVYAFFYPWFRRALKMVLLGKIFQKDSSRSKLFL
# Protocol: as §1, §2, §3, §4
# Radioligand Binding Assay on Mouse TAAR1
# as §5
# as §6, with “expressing mouse” for “expressing rat”, “of ^3[H]-(S)-4-[(ethyl-phenyl-amino)-methyl]-4,5-dihydro-oxazol-2-ylamine” for “of [H]-(S)-4-[(ethyl-phenyl-amino)-methyl]-4,5-dihydro-oxazol-2-ylamine”, “(10 pM” for “(10 μM”
# Chain of rat TAAR1 (Q923Y9 whole entry): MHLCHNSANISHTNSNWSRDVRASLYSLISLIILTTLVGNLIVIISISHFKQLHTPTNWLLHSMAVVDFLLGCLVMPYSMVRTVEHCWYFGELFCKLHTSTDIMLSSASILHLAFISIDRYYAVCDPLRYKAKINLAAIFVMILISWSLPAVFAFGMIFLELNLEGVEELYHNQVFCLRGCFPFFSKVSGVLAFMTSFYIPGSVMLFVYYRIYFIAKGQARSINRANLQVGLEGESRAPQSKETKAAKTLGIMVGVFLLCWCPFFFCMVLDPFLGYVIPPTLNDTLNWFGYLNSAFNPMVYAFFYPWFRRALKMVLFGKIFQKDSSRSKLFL
"Kd ([1]; rat TAAR1 membranes, saturation curve, usual value, read-out: dissociation constant (Kd) of the radioligand) [nM]","Kd ([2]; mouse TAAR1 membranes, saturation curve, usual value, read-out: dissociation constant (Kd) of the radioligand) [nM]",SMILES,Ki [1] [µM],Ki [2] [µM]
,,"c1ccc2c(c1)CCN1CCNC[C@@H]21 [Example 15, (11bR)-2,3,4,6,7,11b-hexahydro-1H-pyrazino[2,1-a]isoquinoline]",0.248,0.0605
,,"c1cc2c(cc1C1CC1)CCN1CCNC[C@@H]21 [Example 29, (11bR)-9-cyclopropyl-2,3,4,6,7,11b-hexahydro-1H-pyrazino[2,1-a]isoquinoline]",0.815,1.81
,,"FC(F)(F)c1ccnc(Nc2ccc3c(c2)CCN2CCNC[C@@H]32)n1 [Example 24, (11bR)-N-[4-(trifluoromethyl)pyrimidin-2-yl]-2,3,4,6,7,11b-hexahydro-1H-pyrazino[2,1-a]isoquinolin-9-amine]",0.0471,0.0599
,,"Cc1ccc2c(c1)CCN1CCNC[C@@H]21 [Example 28, (11bR)-9-methyl-2,3,4,6,7,11b-hexahydro-1H-pyrazino[2,1-a]isoquinoline]",0.421,0.29
,,"CC(C)c1cc(C(=O)Nc2ccc3c(c2)CCN2CCNC[C@@H]32)n(C)n1 [Example 39, (R)-N-(2,3,4,6,7,11b-hexahydro-1H-pyrazino[2,1-a]isoquinolin-9-yl)-3-isopropyl-1-methyl-1H-pyrazole-5-carboxamide]",0.869,1.07
~2.3,~0.7,"CCN(C[C@H]1COC(N)=N1)c1ccccc1 [^3[H]-(S)-4-[(ethyl-phenyl-amino)-methyl]-4,5-dihydro-oxazol-2-ylamine, reference compound]",,
,,"O=C(Nc1cc2c(cc1F)[C@@H]1CNCCN1CC2)c1ccnc(C(F)(F)F)c1 [Example 16, N-[(11bR)-10-fluoro-2,3,4,6,7,11b-hexahydro-1H-pyrazino[2,1-a]isoquinolin-9-yl]-2-(trifluoromethyl)pyridine-4-carboxamide]",1.5,0.175
,,"Cc1cc(Nc2ccc3c(c2)CCN2CCNC[C@@H]32)nc(C)n1 [Example 23, (11bR)-N-(2,6-dimethylpyrimidin-4-yl)-2,3,4,6,7,11b-hexahydro-1H-pyrazino[2,1-a]isoquinolin-9-amine]",0.457,0.165
,,"COc1cc(Nc2ccc3c(c2)CCN2CCNC[C@@H]32)nc(C(F)(F)F)n1 [Example 18, (11bR)-N-[6-methoxy-2-(trifluoromethyl)pyrimidin-4-yl]-2,3,4,6,7,11b-hexahydro-1H-pyrazino[2,1-a]isoquinolin-9-amine]",0.0092,0.0439
,,"Cc1nsc(Nc2ccc3c(c2)CCN2CCNC[C@@H]32)n1 [Example 40, (R)-N-(2,3,4,6,7,11b-hexahydro-1H-pyrazino[2,1-a]isoquinolin-9-yl)-3-methyl-1,2,4-thiadiazol-5-amine]",0.826,0.202
,,"FC(F)(F)c1cnc(Nc2ccc3c(c2)CCN2CCNC[C@H]32)cn1 [Example 12, (11bS)-N-[5-(trifluoromethyl)pyrazin-2-yl]-2,3,4,6,7,11b-hexahydro-1H-pyrazino[2,1-a]isoquinolin-9-amine]",1.98,0.219
,,"CCc1ccc2c(c1)CCN1CCNC[C@@H]21 [Example 27, (11bR)-9-ethyl-2,3,4,6,7,11b-hexahydro-1H-pyrazino[2,1-a]isoquinoline]",0.288,0.266
,,"FC(F)(F)c1nc(Cl)cc(Nc2ccc3c(c2)CCN2CCNC[C@@H]32)n1 [Example 21, (11bR)-N-[6-chloro-2-(trifluoromethyl)pyrimidin-4-yl]-2,3,4,6,7,11b-hexahydro-1H-pyrazino[2,1-a]isoquinolin-9-amine]",0.0134,0.0264
,,"O=C(Nc1ccc2c(c1)CCN1CCNC[C@@H]21)c1ccc(Cl)cc1 [Example 3, N-[(11bR)-2,3,4,6,7,11b-hexahydro-1H-pyrazino[2,1-a]isoquinolin-9-yl]-4-chloro-benzamide]",0.0562,0.0096
,,"c1cc2c(cc1Nc1nc(C3CC3)no1)CCN1CCNC[C@@H]21 [Example 37, N-[(11R)-2,3,4,6,7,11-hexahydro-1H-pyrazino[2,1-a]isoquinolin-9-yl]-3-cyclopropyl-1,2,4-oxadiazol-5-amine]",0.198,0.0347
,,"O=C(Nc1ccc2c(c1)CCN1CCNC[C@@H]21)c1ccnc(C(F)(F)F)c1 [Example 1, N-[(11bR)-2,3,4,6,7,11b-hexahydro-1H-pyrazino[2,1-a]isoquinolin-9-yl]-2-(trifluoromethyl)pyridine-4-carboxamide]",0.199,0.121
,,"O=C(NCc1cccc(C(F)(F)F)c1)c1ccc2c(c1)CCN1CCNC[C@@H]21 [Example 43, (11bR)-N-[[3-(trifluoromethyl)phenyl]methyl]-2,3,4,6,7,11b-hexahydro-1H-pyrazino[2,1-a]isoquinoline-9-carboxamide]",0.137,0.0301
,,"Fc1cccc2c1CCN1CCNC[C@@H]21 [Example 30, (11bR)-8-fluoro-2,3,4,6,7,11b-hexahydro-1H-pyrazino[2,1-a]isoquinoline]",0.201,0.176
,,"COc1ccc(NC(=O)Nc2ccc3c(c2)CCN2CCNC[C@@H]32)cc1 [Example 36, (R)-1-(2,3,4,6,7,11b-hexahydro-1H-pyrazino[2,1-a]isoquinolin-9-yl)-3-(4-methoxyphenyl)urea]",0.023,0.0101
,,"CCc1n[nH]c(C(=O)Nc2ccc3c(c2)CCN2CCNC[C@@H]32)c1C [Example 41, (R)-3-ethyl-N-(2,3,4,6,7,11b-hexahydro-1H-pyrazino[2,1-a]isoquinolin-9-yl)-4-methyl-1H-pyrazole-5-carboxamide]",0.288,0.145
,,"FC(F)(F)c1nccc(Nc2ccc3c(c2)CCN2CCNC[C@@H]32)n1 [Example 5, (11bR)-N-[2-(trifluoromethyl)pyrimidin-4-yl]-2,3,4,6,7,11b-hexahydro-1H-pyrazino[2,1-a]isoquinolin-9-amine]",0.0151,0.0354
,,"O=C(Nc1ccc2c(c1)CCN1CCNC[C@H]21)c1ccc(Cl)cc1 [Example 8, N-[(11bS)-2,3,4,6,7,11b-hexahydro-1H-pyrazino[2,1-a]isoquinolin-9-yl]-4-chloro-benzamide]",0.0063,0.0075
